Measurements reported in ChEMBL document CHEMBL1201862, “PubChem BioAssay data set” (2004).
Where “and” joins values, the source holds several entries; their conditions need not be identical. Equal entries are not always repeated. Calls of active or inactive are those of the source.

What was measured:
[1] = compound autofluorescence in calcium buffer – biochemical, fluorescence, no RTF in test wells, artefact control for cardiac thin filament activator project, dose response (AID 504697)
[2] = molecular target: Troponin, cardiac muscle (Homo sapiens, UniProt P19429+P45379+P63316); assay: Fluorescence-based biochemical high throughput dose response assay for activators of the calcium sensitivity of cardiac Regulated Thin Filaments (RTF). [Related pubchem assays (depositor defined):AID493008, AID493018, AID504382, AID504383]; type: protein-complex assay
[3] = molecular target: T1, G-protein coupled receptor 55 (Homo sapiens, UniProt Q9Y2T6); assay: inhibition of LPI-stimulated GPR55 beta-arrestin translocation – imaging, U2OS, beta-arrestin-GFP, LPI agonist, primary screen (AID 2013); type: functional;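 also: antagonist potency measured as reduced agonist-driven arrestin aggregation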
T1 sequence (Q9Y2T6 whole entry): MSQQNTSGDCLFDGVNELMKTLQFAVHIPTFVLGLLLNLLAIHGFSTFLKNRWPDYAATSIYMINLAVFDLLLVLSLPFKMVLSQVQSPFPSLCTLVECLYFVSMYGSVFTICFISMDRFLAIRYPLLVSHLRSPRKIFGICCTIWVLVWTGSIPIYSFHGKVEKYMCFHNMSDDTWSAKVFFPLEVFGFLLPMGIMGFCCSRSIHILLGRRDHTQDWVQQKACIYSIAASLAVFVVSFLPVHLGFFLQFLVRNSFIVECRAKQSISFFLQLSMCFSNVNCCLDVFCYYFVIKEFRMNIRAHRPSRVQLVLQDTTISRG

[4] = molecular target: T2, Cannabinoid receptor 1 (Homo sapiens, UniProt P21554); assay: SAR analysis of antagonists of the Cannabinoid Receptor 1 using an Image-Based Assay - Set 2. [Related pubchem assays (depositor defined):AID2013, AID2026]; type: functional
T2 sequence (P21554 whole entry): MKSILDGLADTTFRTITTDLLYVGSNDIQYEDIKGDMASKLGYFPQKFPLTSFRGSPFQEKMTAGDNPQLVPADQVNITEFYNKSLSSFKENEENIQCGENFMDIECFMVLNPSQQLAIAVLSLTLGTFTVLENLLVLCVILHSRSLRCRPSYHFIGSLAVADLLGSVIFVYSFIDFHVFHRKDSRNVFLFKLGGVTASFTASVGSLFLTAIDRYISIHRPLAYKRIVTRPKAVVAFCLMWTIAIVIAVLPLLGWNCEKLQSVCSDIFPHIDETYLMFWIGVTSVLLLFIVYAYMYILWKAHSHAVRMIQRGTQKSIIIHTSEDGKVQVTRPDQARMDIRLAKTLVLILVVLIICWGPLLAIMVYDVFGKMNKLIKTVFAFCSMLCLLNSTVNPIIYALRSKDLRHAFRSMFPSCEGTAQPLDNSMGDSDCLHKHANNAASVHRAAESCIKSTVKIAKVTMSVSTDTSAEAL

[5] = molecular target: T3, G-protein coupled receptor 35 (Homo sapiens, UniProt Q9HC97); assay: SAR analysis of Agonists of the GPR35 Receptor using an Image-Based Assay - Set 2. [Related pubchem assays (depositor defined):AID2013, AID2026]; type: functional
T3 sequence (Q9HC97 whole entry): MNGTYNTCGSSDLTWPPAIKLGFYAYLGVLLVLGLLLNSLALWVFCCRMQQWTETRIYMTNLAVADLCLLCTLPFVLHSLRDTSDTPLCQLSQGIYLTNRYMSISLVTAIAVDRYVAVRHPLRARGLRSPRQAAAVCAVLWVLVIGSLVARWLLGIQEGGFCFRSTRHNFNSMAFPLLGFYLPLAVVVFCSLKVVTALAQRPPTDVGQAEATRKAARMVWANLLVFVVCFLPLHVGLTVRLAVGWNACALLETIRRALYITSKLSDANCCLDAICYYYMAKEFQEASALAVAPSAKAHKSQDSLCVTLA

[6] = molecular target: T4, Cannabinoid receptor 2 (Homo sapiens, UniProt P34972); assay: SAR analysis of antagonists of the Cannabinoid Receptor 2 using an Image-Based Assay. [Related pubchem assays (depositor defined):AID2013, AID2026]; type: functional
T4 sequence (P34972 whole entry): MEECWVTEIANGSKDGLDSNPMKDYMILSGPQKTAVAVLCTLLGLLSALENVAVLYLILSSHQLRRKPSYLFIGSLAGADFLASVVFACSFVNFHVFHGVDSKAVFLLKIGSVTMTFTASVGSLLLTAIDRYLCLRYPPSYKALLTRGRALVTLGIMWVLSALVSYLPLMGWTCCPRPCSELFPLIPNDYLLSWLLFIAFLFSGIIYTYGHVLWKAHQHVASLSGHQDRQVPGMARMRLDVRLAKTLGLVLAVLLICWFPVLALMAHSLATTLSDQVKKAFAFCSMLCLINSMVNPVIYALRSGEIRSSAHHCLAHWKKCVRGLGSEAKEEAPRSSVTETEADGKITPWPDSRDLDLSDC

[7] = molecular target: T2, Cannabinoid receptor 1; assay: SAR analysis of agonists of the Cannabinoid Receptor 1 using an Image-Based Assay - Set 2. [Related pubchem assays (depositor defined):AID2013, AID2026]; type: functional
[8] = molecular target: T3, G-protein coupled receptor 35; assay: SAR analysis of Antagonists of the GPR35 Receptor using an Image-Based Assay - Set 3. [Related pubchem assays (depositor defined):AID2013, AID2026]; type: functional
[9] = molecular target: T1, G-protein coupled receptor 55; assay: blockade of LPI-induced GPR55 arrestin translocation – imaging, U2OS, beta-arrestin-GFP, LPI agonist, set 2, SAR follow-up (AID 2820); type: functional
[10] = molecular target: T4, Cannabinoid receptor 2; assay: SAR analysis of agonists of the Cannabinoid Receptor 2 using an Image-Based Assay. [Related pubchem assays (depositor defined):AID2013, AID2026]; type: functional
[11] = molecular target: T5, X-box-binding protein 1 (Homo sapiens, UniProt P17861); type: functional, Cricetulus griseus;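 also: confirmatory dose-response counter-screen serving a CHOP assay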
T5 sequence (P17861 whole entry): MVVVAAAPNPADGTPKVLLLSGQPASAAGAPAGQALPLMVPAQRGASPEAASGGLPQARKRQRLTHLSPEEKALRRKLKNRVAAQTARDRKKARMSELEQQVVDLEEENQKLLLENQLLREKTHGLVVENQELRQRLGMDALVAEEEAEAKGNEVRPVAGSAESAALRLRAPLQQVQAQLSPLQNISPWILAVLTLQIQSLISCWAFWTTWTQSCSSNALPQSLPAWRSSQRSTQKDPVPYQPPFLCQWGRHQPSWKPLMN

[12] = blockers of HIV-1 envelope-mediated cell-cell fusion – cherry-pick, dose response (AID 652057); type: functional, cell-based
[13] = viability loss in CEM21 cells – cell-based, CellTiter-Glo luminescence, cherry-picked, cytotoxicity control for viral fusion inhibitor project, dose response (AID 652042); type: functional;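 also: potency for signal decrease meaning cytotoxicity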
[14] = blockers of HIV-1 ZM109 envelope-driven cell-cell fusion – HeLa effector, CEM target cells, luciferase, cherry-pick, dose response (AID 652058); type: functional, cell-based;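 also: luciferase signal from HIV-1 Env mediated cell-cell fusion of effector and target cells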
[15] = off-target signal loss in HeLa-CEM21 co-culture – HeLa F-luc CTL cells, cherry-picked, counter-screen for HIV-1 Env fusion inhibitor project, dose response (AID 652040); type: functional, cell-based;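 also: potency for signal decrease marking cytotoxic or nonspecific inhibition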
[16] = HIV-1 AD8 envelope cell-cell fusion blockers – cherry-pick, dose response (AID 652062); type: functional, cell-based;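 also: luciferase signal from cell-cell fusion driven by HIV-1 clade B AD8 Env; potency is for inhibitors of fusion seen as a drop in luminescence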
[17] = molecular target: Large T antigen (Simian virus 40, UniProt P03070); type: functional, Betapolyomavirus macacae;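 also: Confirmatory-stage PubChem screen for compounds that inhibit SV40 T antigen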
Chain of Large T antigen (P03070 whole entry): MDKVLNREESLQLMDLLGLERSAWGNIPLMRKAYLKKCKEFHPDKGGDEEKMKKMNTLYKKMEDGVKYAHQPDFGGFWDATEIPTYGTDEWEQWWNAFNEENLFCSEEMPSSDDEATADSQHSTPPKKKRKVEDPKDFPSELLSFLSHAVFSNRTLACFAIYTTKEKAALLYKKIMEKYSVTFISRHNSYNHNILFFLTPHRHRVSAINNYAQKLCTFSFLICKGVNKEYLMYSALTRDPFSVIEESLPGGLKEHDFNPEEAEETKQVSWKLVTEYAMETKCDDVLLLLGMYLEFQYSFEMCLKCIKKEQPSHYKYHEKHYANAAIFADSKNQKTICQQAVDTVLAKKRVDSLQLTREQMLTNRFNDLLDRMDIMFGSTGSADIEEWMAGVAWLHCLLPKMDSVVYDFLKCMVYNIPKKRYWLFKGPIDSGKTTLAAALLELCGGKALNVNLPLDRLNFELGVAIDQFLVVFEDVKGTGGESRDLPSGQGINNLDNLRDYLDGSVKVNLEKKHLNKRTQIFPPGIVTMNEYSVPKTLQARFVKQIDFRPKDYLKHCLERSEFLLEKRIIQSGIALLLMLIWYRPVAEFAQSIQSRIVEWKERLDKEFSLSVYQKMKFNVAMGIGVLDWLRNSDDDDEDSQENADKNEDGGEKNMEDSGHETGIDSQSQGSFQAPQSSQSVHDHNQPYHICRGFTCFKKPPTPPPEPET

[18] = molecular target: Induced myeloid leukemia cell differentiation protein Mcl-1 (Homo sapiens, UniProt Q07820); type: functional
Chain of Induced myeloid leukemia cell differentiation protein Mcl-1 (Q07820 whole entry): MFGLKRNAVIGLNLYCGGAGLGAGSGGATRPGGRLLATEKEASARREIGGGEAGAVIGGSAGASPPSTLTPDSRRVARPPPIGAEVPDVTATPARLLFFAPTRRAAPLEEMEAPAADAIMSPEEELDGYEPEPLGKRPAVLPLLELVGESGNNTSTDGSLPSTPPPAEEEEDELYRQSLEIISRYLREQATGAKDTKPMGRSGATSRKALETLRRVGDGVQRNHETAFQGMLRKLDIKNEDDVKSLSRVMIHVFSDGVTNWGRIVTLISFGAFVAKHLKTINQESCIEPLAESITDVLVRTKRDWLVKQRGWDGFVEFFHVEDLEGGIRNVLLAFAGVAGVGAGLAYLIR

[19] = molecular target: Tyrosine-protein phosphatase non-receptor type 12 (Homo sapiens, UniProt Q05209); assay: SAR Selectivity Analysis of small molecule inhibitors of PEST using pCAP in a fluorescence assay. [Related pubchem assays (depositor defined):AID1779, AID1784, AID2135]; type: functional
Chain of Tyrosine-protein phosphatase non-receptor type 12 (Q05209 whole entry): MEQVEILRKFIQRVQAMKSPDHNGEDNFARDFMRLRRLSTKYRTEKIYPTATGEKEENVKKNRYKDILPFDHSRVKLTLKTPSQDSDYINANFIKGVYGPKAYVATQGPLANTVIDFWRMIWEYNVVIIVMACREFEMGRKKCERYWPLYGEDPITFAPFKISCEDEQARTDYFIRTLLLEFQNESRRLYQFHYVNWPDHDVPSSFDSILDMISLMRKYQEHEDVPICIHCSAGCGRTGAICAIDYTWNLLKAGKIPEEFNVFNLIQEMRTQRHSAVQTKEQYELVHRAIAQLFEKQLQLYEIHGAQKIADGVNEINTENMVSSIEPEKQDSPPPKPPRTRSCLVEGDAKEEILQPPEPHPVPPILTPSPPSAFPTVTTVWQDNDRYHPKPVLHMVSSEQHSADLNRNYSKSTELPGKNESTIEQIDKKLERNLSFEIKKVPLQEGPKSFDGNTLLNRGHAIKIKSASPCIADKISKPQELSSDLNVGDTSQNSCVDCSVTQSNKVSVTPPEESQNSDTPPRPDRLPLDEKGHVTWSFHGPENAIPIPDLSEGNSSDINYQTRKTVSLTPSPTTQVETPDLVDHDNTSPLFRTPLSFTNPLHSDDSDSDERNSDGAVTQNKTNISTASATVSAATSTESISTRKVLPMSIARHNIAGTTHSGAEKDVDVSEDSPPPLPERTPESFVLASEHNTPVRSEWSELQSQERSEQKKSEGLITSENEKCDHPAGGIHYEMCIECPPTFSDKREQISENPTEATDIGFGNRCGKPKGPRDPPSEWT

[20] = molecular target: T6, Tyrosine-protein phosphatase non-receptor type 22 (Homo sapiens, UniProt Q9Y2R2); assay: SAR LYP1 Fluorescent Assay using OMFP substrate for In Vitro dose response studies - Set 3. [Related pubchem assays (depositor defined):AID1779, AID1784, AID2140, AID2686]; type: functional
T6 sequence (Q9Y2R2 whole entry): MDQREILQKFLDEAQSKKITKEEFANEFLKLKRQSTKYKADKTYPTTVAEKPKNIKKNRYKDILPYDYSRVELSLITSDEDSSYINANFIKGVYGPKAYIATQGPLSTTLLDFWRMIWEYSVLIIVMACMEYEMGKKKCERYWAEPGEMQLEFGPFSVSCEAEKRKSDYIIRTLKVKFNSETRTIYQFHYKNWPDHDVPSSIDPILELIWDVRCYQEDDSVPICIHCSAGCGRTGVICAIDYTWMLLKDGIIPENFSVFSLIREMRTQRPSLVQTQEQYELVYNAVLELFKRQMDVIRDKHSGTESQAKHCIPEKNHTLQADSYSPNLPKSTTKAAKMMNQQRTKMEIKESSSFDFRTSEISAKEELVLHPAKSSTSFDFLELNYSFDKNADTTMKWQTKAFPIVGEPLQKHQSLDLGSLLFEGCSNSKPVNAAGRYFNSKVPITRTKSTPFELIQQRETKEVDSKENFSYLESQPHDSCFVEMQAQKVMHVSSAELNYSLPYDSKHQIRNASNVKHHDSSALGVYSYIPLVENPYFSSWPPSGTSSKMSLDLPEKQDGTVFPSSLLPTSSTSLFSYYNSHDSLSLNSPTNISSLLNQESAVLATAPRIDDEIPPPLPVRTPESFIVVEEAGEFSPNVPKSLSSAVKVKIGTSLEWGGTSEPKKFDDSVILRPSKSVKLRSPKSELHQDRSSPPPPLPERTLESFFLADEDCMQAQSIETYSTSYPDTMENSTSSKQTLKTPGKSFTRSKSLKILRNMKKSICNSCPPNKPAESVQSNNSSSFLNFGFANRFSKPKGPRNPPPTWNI

[21] = molecular target: T7, Tyrosine-protein phosphatase non-receptor type 7 (Homo sapiens, UniProt P35236); assay: inhibition of hematopoietic tyrosine phosphatase HePTP – biochemical, set 2, SAR follow-up (AID 449736); type: functional
T7 sequence (P35236 whole entry): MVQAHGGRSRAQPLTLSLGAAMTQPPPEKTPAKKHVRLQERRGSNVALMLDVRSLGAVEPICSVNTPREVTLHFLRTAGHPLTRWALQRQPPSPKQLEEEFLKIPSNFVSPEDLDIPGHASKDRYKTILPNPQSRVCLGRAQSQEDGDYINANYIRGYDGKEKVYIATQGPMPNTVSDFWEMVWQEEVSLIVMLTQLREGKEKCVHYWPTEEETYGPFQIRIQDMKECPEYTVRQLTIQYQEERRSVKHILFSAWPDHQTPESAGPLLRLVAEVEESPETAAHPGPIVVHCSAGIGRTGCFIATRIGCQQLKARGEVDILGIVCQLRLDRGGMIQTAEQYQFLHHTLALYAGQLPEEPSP

[22] = molecular target: T6, Tyrosine-protein phosphatase non-receptor type 22; assay: inhibition of lymphoid tyrosine phosphatase LYP – biochemical, pCAP fluorogenic substrate, fluorescence, set 3, SAR follow-up (AID 449727); type: functional
[23] = molecular target: T3, G-protein coupled receptor 35; assay: SAR analysis of Agonists of the GPR35 Receptor using an Image-Based Assay - Set 4. [Related pubchem assays (depositor defined):AID2013, AID2026]; type: functional
[24] = molecular target: T2, Cannabinoid receptor 1; assay: SAR analysis of agonists of the Cannabinoid Receptor 1 using an Image-Based Assay - Set 4. [Related pubchem assays (depositor defined):AID2013, AID2026]; type: functional
[25] = molecular target: T3, G-protein coupled receptor 35; assay: SAR analysis of Antagonists of the GPR35 Receptor using an Image-Based Assay - Set 6. [Related pubchem assays (depositor defined):AID2013, AID2026]; type: functional
[26] = molecular target: T2, Cannabinoid receptor 1; assay: SAR analysis of antagonists of the Cannabinoid Receptor 1 using an Image-Based Assay - Set 4. [Related pubchem assays (depositor defined):AID2013, AID2026]; type: functional
[27] = molecular target: T1, G-protein coupled receptor 55; assay: SAR Analysis of Selective Antagonists of GPR55 using an Image-Based Assay - Set 4. [Related pubchem assays (depositor defined):AID2013, AID2026]; type: functional
[28] = molecular target: T4, Cannabinoid receptor 2; assay: SAR analysis of antagonists of the Cannabinoid Receptor 2 using an Image-Based Assay - Set 3. [Related pubchem assays (depositor defined):AID2013, AID2026]; type: functional
[29] = molecular target: T4, Cannabinoid receptor 2; assay: SAR analysis of agonists of the Cannabinoid Receptor 2 using an Image-Based Assay - Set 3. [Related pubchem assays (depositor defined):AID2013, AID2026]; type: functional
[30] = molecular target: CAAX prenyl protease 2 (Saccharomyces cerevisiae S288c, UniProt Q03530); type: biochemical
Chain of CAAX prenyl protease 2 (Q03530 whole entry): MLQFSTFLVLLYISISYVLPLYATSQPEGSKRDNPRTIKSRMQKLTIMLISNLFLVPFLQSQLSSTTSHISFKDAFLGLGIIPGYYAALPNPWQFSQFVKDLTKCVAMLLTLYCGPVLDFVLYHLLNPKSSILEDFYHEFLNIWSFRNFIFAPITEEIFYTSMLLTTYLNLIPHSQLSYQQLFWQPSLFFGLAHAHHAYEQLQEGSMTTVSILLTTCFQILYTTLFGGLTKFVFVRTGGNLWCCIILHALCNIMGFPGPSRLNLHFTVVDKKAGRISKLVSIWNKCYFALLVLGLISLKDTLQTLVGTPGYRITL

[31] = toxicity toward cultured mammalian cells – cell-based, plate reader, cherry-pick samples, cytotoxicity control, dose response (AID 504397); type: functional

N#C/C(=C/c1ccc(-c2ccccc2)o1)c1nc(-c2cccs2)cs1
active: EC50 [1] > 7.94 µM | EC50 [2] 0.615 µM

CC1=CC(C)(C)N2C(=O)C3(SCC(=O)N3c3ccc(F)cc3)c3cc(C)cc1c32 (stereo unspecified)
< 10 µM: Absolute IC50 (XBP1) [11]
active: IC50 [3] 4.09 µM | IC50 [4] 6.41 µM | IC50 [9] 1.42 µM | AC50 [12] 23.7 µM | AC50 [13] 53.1 µM | AC50 [14] 1.13 µM | AC50 [15] 43.1 µM | AC50 [16] 21.8 µM
inactive: EC50 [5] > 32 µM | IC50 [6] > 32 µM | EC50 [7] > 32 µM | IC50 [8] > 32 µM | EC50 [10] > 32 µM

CC(/C=C1\SC(=S)N(CCCC(=O)Nc2ccc(C(=O)O)c(O)c2)C1=O)=C\c1ccccc1
active: IC50 [17] > 100 µM | IC50 [18] 1.56 µM | IC50 [19] 14 µM and 9.91 µM | IC50 [20] 49.1 µM and 44.9 µM | IC50 [21] 739 nM and 703 nM | IC50 [22] 37.9 µM and 40.9 µM

Cc1nc(N2CCN(C(=O)C3CCCCC3)CC2)c2c3c(sc2n1)CCCC3
active: IC50 [26] 3.05 µM | IC50 [27] 9.24 µM
inactive: EC50 [23] > 32 µM | EC50 [24] > 32 µM | IC50 [25] > 32 µM | IC50 [28] > 16.8 µM | EC50 [29] > 32 µM

Cc1ccsc1/C=N/NC(=O)c1nnn(-c2nonc2N)c1C(C)C
active: AC50 [30] 0.87 µM | AC50 [31] 67.6 µM
